In ChEMBL document CHEMBL4665657, “2-Phenyl-8-(1-phenylallyl)-chromenone compounds have a pan-PPAR modulator pharmacophore” (Bioorg Med Chem, 2019):
pIC50, pKi: −log10 of the molar value. Values belong to the compound of their own block, whether it stands above or below them. Activity calls are given as the source filed them. The calls are words filed in the database; no cut-off is given here.

What was measured:
BMMSC [1] = experiment: Induction of adipogenesis in human BMMSC cells assessed as increase in adiponectin secretion at 10 uM incubated for 5 days by ELISA; assay type: functional, cell-based; settings: time 5.0 day
A549 = experiment: Cytotoxicity against human A549 cells assessed as reduction in cell viability incubated for 72 hrs by WST-8 assay; assay type: functional, cell-based; settings: A549, 72 h
BMMSC [2] = experiment: Induction of adipogenesis in human BMMSC cells assessed as lipid droplet formation at 10 uM incubated for 5 days by oil red O staining based inverted microscopy analysis; assay type: functional, cell-based; settings: time 5.0 day
BMMSC [3] = experiment: Induction of adipogenesis in human BMMSC cells assessed as increase in adiponectin secretion incubated for 5 days by ELISA; assay type: functional, cell-based; settings: time 5.0 day
[4] = target: T1, Peroxisome proliferator-activated receptor gamma (Homo sapiens, UniProt P37231); experiment: Binding affinity to PPARgamma (unknown origin) by TR-FRET assay
T1 sequence (P37231 whole entry): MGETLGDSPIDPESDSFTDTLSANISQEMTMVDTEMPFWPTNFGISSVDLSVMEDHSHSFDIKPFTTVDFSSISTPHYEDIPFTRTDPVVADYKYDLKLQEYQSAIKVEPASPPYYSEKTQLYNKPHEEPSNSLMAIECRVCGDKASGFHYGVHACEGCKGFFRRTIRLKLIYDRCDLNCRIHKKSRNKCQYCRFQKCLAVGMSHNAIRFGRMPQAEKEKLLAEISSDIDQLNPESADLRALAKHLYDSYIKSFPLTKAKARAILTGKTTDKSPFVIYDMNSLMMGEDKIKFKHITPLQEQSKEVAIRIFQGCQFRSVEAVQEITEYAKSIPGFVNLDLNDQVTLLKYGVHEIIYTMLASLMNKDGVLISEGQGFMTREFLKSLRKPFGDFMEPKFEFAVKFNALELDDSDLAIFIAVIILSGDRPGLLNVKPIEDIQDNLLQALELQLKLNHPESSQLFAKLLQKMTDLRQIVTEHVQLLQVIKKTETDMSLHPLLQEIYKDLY

[5] = target: T2, Peroxisome proliferator-activated receptor delta (Homo sapiens, UniProt Q03181); experiment: Binding affinity to PPARdelta (unknown origin) by TR-FRET assay
T2 sequence (Q03181 whole entry): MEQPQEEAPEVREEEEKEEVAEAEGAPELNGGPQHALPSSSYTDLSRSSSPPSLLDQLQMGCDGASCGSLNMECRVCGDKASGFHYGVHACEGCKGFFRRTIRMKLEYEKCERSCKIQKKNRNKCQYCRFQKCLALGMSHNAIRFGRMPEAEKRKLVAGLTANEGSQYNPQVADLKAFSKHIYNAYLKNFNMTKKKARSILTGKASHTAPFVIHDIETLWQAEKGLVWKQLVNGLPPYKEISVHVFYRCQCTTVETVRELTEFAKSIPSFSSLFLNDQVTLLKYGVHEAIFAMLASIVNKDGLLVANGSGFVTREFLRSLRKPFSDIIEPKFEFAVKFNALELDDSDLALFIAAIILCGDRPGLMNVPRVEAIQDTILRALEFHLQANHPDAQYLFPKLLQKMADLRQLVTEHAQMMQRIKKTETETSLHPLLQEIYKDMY

[6] = target: T3, Peroxisome proliferator-activated receptor alpha (Homo sapiens, UniProt Q07869); experiment: Binding affinity to PPARalpha (unknown origin) by TR-FRET assay
T3 sequence (Q07869 whole entry): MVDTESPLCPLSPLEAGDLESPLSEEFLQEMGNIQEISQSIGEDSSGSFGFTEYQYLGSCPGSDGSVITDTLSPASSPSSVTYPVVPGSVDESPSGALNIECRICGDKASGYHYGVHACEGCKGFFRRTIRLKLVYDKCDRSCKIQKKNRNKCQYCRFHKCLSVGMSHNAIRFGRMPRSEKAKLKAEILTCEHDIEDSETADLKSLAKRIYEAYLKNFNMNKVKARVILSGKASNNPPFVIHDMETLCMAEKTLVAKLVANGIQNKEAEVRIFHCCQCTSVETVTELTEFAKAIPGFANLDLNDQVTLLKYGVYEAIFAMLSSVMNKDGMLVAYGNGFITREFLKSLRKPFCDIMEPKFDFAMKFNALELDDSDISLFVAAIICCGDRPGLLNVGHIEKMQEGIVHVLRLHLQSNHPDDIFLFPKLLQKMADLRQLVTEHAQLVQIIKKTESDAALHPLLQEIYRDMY

[7] = Cytotoxicity against human BM-MSC cells assessed as cell viability at 100 uM incubated for 72 hrs by WST-8 assay; assay type: cell-based, BMMSC; settings: read-out: Activity
PC-3 = experiment: Cytotoxicity against human PC-3 cells assessed as reduction in cell viability incubated for 72 hrs by WST-8 assay; assay type: functional, cell-based; settings: PC-3, 72 h
[8] = target: T4, Glucocorticoid receptor (Homo sapiens) (UniProt P04150); experiment: Binding affinity to glucocorticoid receptor (unknown origin) by TR-FRET assay
T4 sequence (whole entry): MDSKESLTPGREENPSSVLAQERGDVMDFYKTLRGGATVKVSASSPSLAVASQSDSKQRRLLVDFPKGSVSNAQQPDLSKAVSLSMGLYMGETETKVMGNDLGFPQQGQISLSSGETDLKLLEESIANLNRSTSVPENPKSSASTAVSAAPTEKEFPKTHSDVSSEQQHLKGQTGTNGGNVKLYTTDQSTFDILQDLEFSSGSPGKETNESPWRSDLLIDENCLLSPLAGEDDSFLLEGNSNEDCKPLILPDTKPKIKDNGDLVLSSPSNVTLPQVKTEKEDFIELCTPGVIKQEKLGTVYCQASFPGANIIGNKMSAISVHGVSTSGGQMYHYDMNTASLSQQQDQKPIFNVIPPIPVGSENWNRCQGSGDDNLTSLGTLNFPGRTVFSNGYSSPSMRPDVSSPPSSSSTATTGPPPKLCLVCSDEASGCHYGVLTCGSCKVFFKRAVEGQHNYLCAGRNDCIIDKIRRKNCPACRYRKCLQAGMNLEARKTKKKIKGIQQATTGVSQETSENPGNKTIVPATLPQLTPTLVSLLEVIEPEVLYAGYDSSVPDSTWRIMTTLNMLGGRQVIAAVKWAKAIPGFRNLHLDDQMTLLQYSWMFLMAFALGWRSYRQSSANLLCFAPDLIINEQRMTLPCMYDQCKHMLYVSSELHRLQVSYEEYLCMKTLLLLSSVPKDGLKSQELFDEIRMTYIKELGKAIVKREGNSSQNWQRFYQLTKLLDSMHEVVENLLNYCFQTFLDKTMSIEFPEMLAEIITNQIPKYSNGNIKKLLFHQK

BMMSC [9] = experiment: Induction of adipogenesis in human BMMSC cells assessed as increase in ACACB mRNA at 10 uM incubated for 3 days by qRT-PCR analysis; assay type: functional, cell-based; settings: time 3.0 day
[10] = target: T5, Oxysterols receptor LXR-alpha (Homo sapiens) (UniProt Q13133); experiment: Transactivation of LXRalpha (unknown origin) by TR-FRET assay
T5 sequence (whole entry): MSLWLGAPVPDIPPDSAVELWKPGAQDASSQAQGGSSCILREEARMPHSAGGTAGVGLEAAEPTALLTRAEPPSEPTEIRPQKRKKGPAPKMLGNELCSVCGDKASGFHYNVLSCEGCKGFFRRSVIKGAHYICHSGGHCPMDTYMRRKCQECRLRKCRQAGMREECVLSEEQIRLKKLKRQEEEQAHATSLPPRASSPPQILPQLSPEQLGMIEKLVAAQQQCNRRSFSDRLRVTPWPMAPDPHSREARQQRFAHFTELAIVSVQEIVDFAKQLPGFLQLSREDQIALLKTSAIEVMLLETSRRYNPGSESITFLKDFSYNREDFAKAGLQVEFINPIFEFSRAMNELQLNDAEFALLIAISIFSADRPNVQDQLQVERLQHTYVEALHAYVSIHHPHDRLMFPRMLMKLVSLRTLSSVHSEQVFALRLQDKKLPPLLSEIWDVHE

BMMSC [11] = experiment: Induction of adipogenesis in human BMMSC cells assessed as increase in adiponectin secretion at 10 uM in presence of pioglitazone incubated for 5 days by ELISA; assay type: functional, cell-based; settings: time 5.0 day
[12] = target: T6, Oxysterols receptor LXR-beta (Homo sapiens) (UniProt P55055); experiment: Transactivation of LXRbeta (unknown origin) by TR-FRET assay
T6 sequence (whole entry): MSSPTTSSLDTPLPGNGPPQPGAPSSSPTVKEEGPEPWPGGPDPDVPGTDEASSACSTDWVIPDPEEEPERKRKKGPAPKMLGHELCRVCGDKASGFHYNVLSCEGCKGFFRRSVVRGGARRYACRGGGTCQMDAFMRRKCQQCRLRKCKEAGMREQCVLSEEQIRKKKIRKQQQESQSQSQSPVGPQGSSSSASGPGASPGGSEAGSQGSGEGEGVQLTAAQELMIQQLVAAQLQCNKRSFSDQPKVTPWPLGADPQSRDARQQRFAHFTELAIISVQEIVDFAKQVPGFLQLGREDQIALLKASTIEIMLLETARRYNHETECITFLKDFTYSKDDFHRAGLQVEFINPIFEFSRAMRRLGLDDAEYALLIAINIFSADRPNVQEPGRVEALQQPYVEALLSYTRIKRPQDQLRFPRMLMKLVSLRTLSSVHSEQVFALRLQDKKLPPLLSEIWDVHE

BMMSC [13] = experiment: Induction of adipogenesis in human BMMSC cells assessed as increase in ANGPTL4 mRNA at 10 uM incubated for 3 days by qRT-PCR analysis; assay type: functional, cell-based; settings: time 3.0 day
BMMSC [14] = experiment: Induction of adipogenesis in human BMMSC cells assessed as increase in adiponectin secretion at 10 uM in presence of GW501516 incubated for 5 days by ELISA; assay type: functional, cell-based; settings: time 5.0 day
BMMSC [15] = experiment: Induction of adipogenesis in human BMMSC cells assessed as increase in adiponectin mRNA at 10 uM incubated for 3 days by qRT-PCR analysis; assay type: functional, cell-based; settings: time 3.0 day
[16] = target: T7, Bile acid receptor (Homo sapiens) (UniProt Q96RI1); experiment: Transactivation of FXR (unknown origin) by TR-FRET assay
T7 sequence (whole entry): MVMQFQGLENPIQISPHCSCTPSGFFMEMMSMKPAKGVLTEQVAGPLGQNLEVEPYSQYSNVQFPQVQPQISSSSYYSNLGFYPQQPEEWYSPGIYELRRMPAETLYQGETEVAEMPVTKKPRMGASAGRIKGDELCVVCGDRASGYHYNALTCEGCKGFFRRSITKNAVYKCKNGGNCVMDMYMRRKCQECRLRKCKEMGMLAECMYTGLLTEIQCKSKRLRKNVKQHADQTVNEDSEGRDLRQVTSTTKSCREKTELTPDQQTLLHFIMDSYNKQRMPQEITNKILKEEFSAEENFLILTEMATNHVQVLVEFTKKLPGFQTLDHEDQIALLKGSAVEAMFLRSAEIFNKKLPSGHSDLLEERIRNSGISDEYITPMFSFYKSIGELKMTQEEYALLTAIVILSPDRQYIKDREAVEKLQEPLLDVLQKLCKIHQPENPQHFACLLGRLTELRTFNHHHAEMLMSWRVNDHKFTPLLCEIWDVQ

BMMSC [17] = experiment: Induction of adipogenesis in human BMMSC cells assessed as increase in adiponectin secretion at 10 uM in presence of WY14643 incubated for 5 days by ELISA; assay type: functional, cell-based; settings: time 5.0 day
BMMSC [18] = experiment: Induction of adipogenesis in human BMMSC cells assessed as increase in ACOX1 mRNA at 10 uM incubated for 3 days by qRT-PCR analysis; assay type: functional, cell-based; settings: time 3.0 day
BMMSC [19] = experiment: Induction of adipogenesis in human BMMSC cells assessed as increase in HMGCS2 mRNA at 10 uM incubated for 3 days by qRT-PCR analysis; assay type: functional, cell-based; settings: time 3.0 day
BMMSC [20] = experiment: Induction of adipogenesis in human BMMSC cells assessed as increase in HMGCR mRNA at 10 uM incubated for 3 days by qRT-PCR analysis; assay type: functional, cell-based; settings: time 3.0 day

pKi [4]: 5.60 | pKi [5]: 5.61 | pKi [6]: 5.62
Structure (SMILES): C=CC(c1ccc(O)c(OC)c1)c1c(O)cc(O)c2c(=O)cc(-c3ccccc3)oc12 (stereo unspecified)
Activity (BMMSC [1]): Active | pIC50 (A549): 4.26 | Activity (BMMSC [2]): Active | Activity (BMMSC [3]): Dose-dependent effect | viability at 72 h, 100 µM [7]: 57% | pIC50 (PC-3): 4.51

Activity [8]: inactive | Activity [10]: inactive | Activity [12]: inactive | pKi [4]: 5.85 | Activity [16]: inactive | pKi [5]: 5.93 | pKi [6]: 6.02
Structure (SMILES): C=CC(c1ccccc1)c1c(O)cc(O)c2c(=O)cc(-c3ccccc3)oc12 (stereo unspecified)
Activity (BMMSC [1]): Active | Activity (BMMSC [9]): Active | Activity (BMMSC [11]): Active | Activity (BMMSC [2]): Active | Activity (BMMSC [13]): Active | Activity (BMMSC [14]): Active | Activity (BMMSC [3]): Dose-dependent effect | Activity (BMMSC [15]): Active | Activity (BMMSC [17]): Active | Activity (BMMSC [18]): Active | Activity (BMMSC [19]): Active | Activity (BMMSC [20]): Active

Structure (SMILES): C=CC(c1ccc(OC)cc1)c1c(O)cc(O)c2c(=O)cc(-c3ccccc3)oc12 (stereo unspecified)
Activity (BMMSC [1]): Active | Activity (BMMSC [2]): Active | Activity (BMMSC [3]): Dose-dependent effect
